Measured values taken from paper PMC9171067, “A High Throughput Cell-Based Screen Assay for LINE-1 ORF1p Expression Inhibitors Using the In-Cell Western Technique” (Frontiers in Pharmacology, 2022).
Read-outs that look alike come from different tables or passages of the source. One block for each compound: values may come before it.

Columns and labels:
LINE-1 5'-UTR promoter = assay: L1-FL luciferase reporter driven by the LINE-1 5'-UTR promoter in 293 T cells; format: cell-based, human
LINE-1 ORF1p expression [1] = assay: In-Cell Western (ICW) assay of LINE-1 ORF1p expression in T-47D cells; format: cell-based, human; settings: for EC50: Homo sapiens, T47D, T-47D cells 15000/well, serially diluted compound, 24 h incubation, ICW, read-out: EC50 for diminishing LINE-1 ORF1p expression level; for Inhibition Activity (%) of LINE-1 ORF1p expression: ICW screen, T47D cells, compounds 10 μM, 48 h
Description: T-47D cells grown at 1×10^3 cells per well in 96-well plates (Corning Incorporated Costar, #3603). After 24 h incubation, chemical compounds (10 μM) were added to each well. After 48 h incubation, plates were fixed with 4% paraformaldehyde (PFA) for 20min at room temperature (RT). Then the cells were permeabilized with 0.2% Triton X-100 for 15min at RT, and blocked with Odyssey Blocking Buffer (TBS) (LI-COR, 9275000) for 1 h at RT. The cells were incubated at 4°C overnight with a rabbit monoclonal anti-ORF1p antibody (diluted 1:200, Abcam) and a mouse monoclonal anti-beta-actin antibody (diluted 1:250, Abcam) with gentle shakes. After five washes with PBS, the cells were stained with an IRDye® 800RD Goat anti-Rabbit antibody (diluted 1:400, LI-COR, #926–68071) and IRDye® 680CW Goat anti-Mouse antibody (1:600, LI-COR, #926–32210) at RT for 2 h. The microplates, were scanned with the Odyssey system (LI-COR), and the integrated fluorescence intensities representing the protein expression levels were acquired using Image Studio Ver 5.2 software ([Egorina et al., 2006]). Compared with DMSO control, compounds with an inhibition rate over 50% were defined as promising compounds.
(§1) The 50% cytotoxic concentration (CC50) values of 5 drug leads were measured using normal […] cell line HUVEC and breast cancer cell line T-47D at 6 different inhibitor concentrations. HUVEC and T47-D cell lines in the logarithmic phase were reseeded into 96-well plates (Nest Inc.) at a density of 1×10^3 cells/well and the plates were incubated for up to 2 days. At the end of each experiment, cells were incubated with 10 µl of the CCK-8 reagent (Vazyme) at 37°C for 2 h. The optical density (OD) at 450 nm was measured by a microplate reader (PerkinElmer Inc.) according to the manufacturer’s instructions. The data are expressed as % of the control. The experiments were repeated at least three times. The 50% effective concentration (EC50) of 5 drugs were measured using breast cancer cell line T-47D and 6 different inhibitor concentrations.

[2] = CCK-8 cell viability (CC50) in T-47D cells; format: cell-based; settings: human
Description: as §1

[3] = tested on: LINE-1 retrotransposition; assay: LINE-1 retrotransposition dual-luciferase assay (pWA367 reporter) in HeLa cells; format: cell-based, human; settings: 10 μM
Description: This assay is utilized to measure the influence of the compounds on LINE-1 retrotransposition or the L1 5′UTR promoter activity. A 200:1 ratio of FL-L1 or pWA367 and pCMV-Rluc was transfected into HeLa cells, Rluc was served as a control to normalize the Firefly luciferase activity level. Six hours post-transfection, cells were reseeded in 96-well plates, and the plates were incubated for up to 1 day. Next, compounds #1:Hydroxyprogesterone (10μM, 20 μM), # 2: 2,2':5′,2″-Terthiophene (10μM, 20 μM) and # 3: Ethynyl estradiol (10μM, 20 μM) were added. 72–96 h after adding tested compounds to the cells, 25 μl passive lysis buffer was added in each well to lyse cells, and then, 20 μl lysate was detected by dual-luciferase reporter assay system (Promega, USA). Furthermore, the activity levels of Renilla and Firefly luciferase were quantified using Promega Luciferase Assay Kit (Promega) on a Berthold microplate reader.

LINE-1 ORF1p expression [4] = assay: Immunoblotting of LINE-1 ORF1p in T-47D cells; format: cell-based, human; settings: 48 h
Description: Cells were collected and lysed with NP-40 buffer (Beyotime). The protein lysis was boiled for 20 min at 100 C in SDS-PAGE loading buffer. Equal amounts of cell lysate were […]. Proteins were transferred onto a PVDF membrane, blocked with 5% skim milk, and probed with anti-ORF1p antibody (diluted 1:1000) and anti-β-actin antibody (diluted 1:5,000) at 4°C overnight. After four wash steps with PBS plus 0.1% Tween 20 (PBST), the membrane was incubated with 1:5,000 dilution of HRP-conjugated goat-anti-mouse, HRP-conjugated goat-anti-rabbit, IRDye® 800CW Goat anti-Rabbit 926–32,211 (1:10,000, LI-COR) and IRDye® 700CW Goat anti-Mouse 926–32,210 (1:10,000, LI-COR) secondary antibodies for 1 h at room temperature. After four wash steps with PBS plus 0.1% Tween 20 (PBST), signals were detected using Western Lightning chemiluminescence reagent or analyzed with the Odyssey infrared imaging system and the software program as specified in the Odyssey software manual.

NCl-H446 cells = assay: CCK8 cell proliferation assay, NCl-H446; format: cell-based, human; settings: IFNα17 200 or 500 Units/mL, 6 days
Description: (§2) To analyze the anti-proliferation effects of the three compounds and IFN17α against carcinoma cells, NCI-H661, NCI-H446, T47-D, MRC-5 and WI-38 cell lines in the logarithmic phase were reseeded into 96-well plates (Nest Inc.) at a density of 1×10^4 cells/well and the plates were incubated for 24 h. Next, IFN17α (200U/mL) was incubated with NCI-H661, NCI-H446, T47-D and MRC-5 cells, compounds #1(Hydroxyprogesterone), #2 (2,2':5′,2″-Terthiophene) and #3 (Ethynyl estradiol) were added at the concentrations of 10μM and 20 μM respectively, for consecutive 6 days. Cells were incubated with 10 µl of the CCK-8 reagent (Vazyme) each day at 37°C for 2 h. The optical density (OD) at 450 nm was measured by a microplate reader (PerkinElmer Inc.) according to the manufacturer’s instructions. The experiments were repeated at least three times.

LINE-1 RNA = assay: RT-qPCR of LINE-1 RNA level in T-47D cells; format: cell-based, human; settings: IFNα17 200 Units/mL, 48 h
Description: Total RNA was extracted from cells using TRIZOL Reagent (Invitrogen). RNA was reverse transcribed to cDNA using MLV Reverse Transcriptase (Invitrogen) with random primers. The cDNAs were quantified using SsoFast EvaGreen Supermix (Bio-Rad) with Bio Rad iCycler iQ5 Real-Time PCR systems. Primer sequences for cDNAs were as follows: (5′-AATGAGATCACATGGACACAGGAAG-3’/5′- TGTATACATGTGCCATGCTGGTGC-3′).

NCl-H661 cells = assay: CCK8 cell proliferation assay, NCl-H661; format: cell-based, human; settings: IFNα17 200 or 500 Units/mL, 6 days
Description: as §2

T47D cells = assay: CCK8 cell proliferation assay, T47D; format: cell-based, human; settings: IFNα17 500 Units/mL, 6 days
Description: as §2, with “Next, IFN17α (200U/mL) was incubated with NCI-H661, NCI-H446, T47-D and MRC-5 cells, compounds #1(Hydroxyprogesterone), #2 (2,2':5′,2″-Terthiophene) and #3 (Ethynyl estradiol) were added at the concentrations of 10μM and 20 μM respectively, for consecutive 6 days.” left out

EC50 (LINE-1 ORF1p expression [1]): 12.4 µM
Compound: C#C[C@]1(O)CC[C@H]2[C@@H]3CCc4cc(O)ccc4[C@H]3CC[C@@]21C [#3, Ethynyl estradiol]
suppression of luciferase value (L1-FL) (LINE-1 5'-UTR promoter; 10 μM): over 60%
Inhibition Activity (%) of LINE-1 ORF1p expression (LINE-1 ORF1p expression [1]): 60%
CC50 ([2]; T-47D breast cancer cells, T-47D cells 1000/well, CCK-8, read-out: CC50): 91.4 µM
effect on LINE-1 retrotransposition (Fluc/Rluc) [3]: best potent activity

Compound: Cc1cn([C@H]2C=C[C@@H](CO)O2)c(=O)[nH]c1=O [d4T, reference compound]
effect on LINE-1 ORF1p level by immunoblotting (LINE-1 ORF1p expression [4]): little effect
effect on LINE-1 retrotransposition (Fluc/Rluc) [3]: inhibited LINE-1 retrotransposition

Compound: IFNα17: interferon used as positive control in inhibiting LINE-1 ORF1p expression level in the ICW assay
effect of IFNα17 on proliferation of NCl-H446 (NCl-H446 cells): significantly decrease
suppression of LINE-1 RNA level (LINE-1 RNA): over 60%
effect on LINE-1 ORF1p level by immunoblotting (LINE-1 ORF1p expression [4]): obviously decrease ORF1p level in a dose-dependent manner
effect on luciferase value (L1-FL) (LINE-1 5'-UTR promoter; IFNα17 200 Unit/mL, 500 Unit/mL): mild effects
effect of IFNα17 on proliferation of NCl-H661 (NCl-H661 cells): significantly decrease
effect on ICW fluorescence value (ORF1p) (LINE-1 ORF1p expression [1]; T-47D cells, increasing doses of IFNα17): decreased fluorescence value in a dose-dependent way
effect of IFNα17 on proliferation of T47D (T47D cells): inhibition became obvious

Compound: c1csc(-c2ccc(-c3cccs3)s2)c1 [#2, 2,2':5′,2″-Terthiophene]
effect on luciferase value (L1-FL) (LINE-1 5'-UTR promoter; 10 μM): mild effects
EC50 (LINE-1 ORF1p expression [1]): 32.3 µM
Inhibition Activity (%) of LINE-1 ORF1p expression (LINE-1 ORF1p expression [1]): 56%
CC50 [2]: 95.5 µM
